From patent publication US20040242459A1 (priority 2001, published 2004)

Molecular target: T1, recombinant human PPARγ (GST-PPARγ) (Homo sapiens, UniProt P37231)
T1 construct: The full length human cDNA for PPARγ 2 was subcloned into the pGEX-2 T expression vector; made in house; host or cells: E. coli
T1 sequence (P37231 1-505): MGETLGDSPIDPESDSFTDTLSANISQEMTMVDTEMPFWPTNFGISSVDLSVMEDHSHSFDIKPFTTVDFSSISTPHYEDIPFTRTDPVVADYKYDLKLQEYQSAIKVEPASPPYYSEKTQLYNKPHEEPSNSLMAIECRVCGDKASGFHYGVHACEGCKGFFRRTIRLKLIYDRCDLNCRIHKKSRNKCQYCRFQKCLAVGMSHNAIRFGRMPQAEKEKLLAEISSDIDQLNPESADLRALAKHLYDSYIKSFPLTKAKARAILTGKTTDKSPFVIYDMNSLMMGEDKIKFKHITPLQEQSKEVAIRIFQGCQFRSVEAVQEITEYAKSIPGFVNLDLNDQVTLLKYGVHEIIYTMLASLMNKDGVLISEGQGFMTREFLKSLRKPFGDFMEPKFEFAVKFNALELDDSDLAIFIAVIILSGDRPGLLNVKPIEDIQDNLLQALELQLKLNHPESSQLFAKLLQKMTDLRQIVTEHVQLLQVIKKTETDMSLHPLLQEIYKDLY
Assay: Scintillation Proximity Assay, displacement of [3H2]Compound A from PPARγ
Type: binding
Conditions: human PPARγ binding; read-out: IC50 (μM: SPA or BND) Gamma
Description: As an approach to identifying human PPAR agonists, a Scintillation Proximity Assay was used to characterize PPAR-γ, PPAR-δ, and PPAR-α ligands.
Human PPARγ2, human PPARδ and human PPARα were expressed as GST-fusion proteins in E. coli. The full length human cDNA for PPARγ 2 was subcloned into the pGEX-2 T expression vector (Amersham Pharmacia Biotech, Inc.). The full length human cDNAs for PPARδ and PPARα were subcloned into the pGEX-KT expression vector (Amersham Pharmacia Biotech, Inc.). E. coli containing the respective plasmids were propagated, induced, and harvested by centrifugation. The resuspended pellet was broken in a French press and debris removed by centrifugation. Recombinant human PPAR receptors were purified by affinity chromatography on glutathione sepharose. After application to the column, and one wash, receptor was eluted with glutathione. Glycerol (10%) was added to stabilize the receptor and aliquots were stored at −80° C.
After incubation for ˜16 h at 15° C. with shaking, the assay plates were counted in a Packard Topcount with quench correction.

IC50: 0.097 µM
SMILES: CCCc1cc(Oc2ccccc2)ccc1OCCc1cc2cc(CC(=O)O)ccc2[nH]1 [Compound 2, {2-[2-(4-phenoxy-2-propylphenoxy)ethyl]-1H-indol-5-yl}acetic acid]
